Laboratory results as given in patent US7968752B2, “Hydrolytically-resistant boron-containing therapeutics and methods of use” (Anacor Pharmaceuticals, Inc., priority 2003, dated 2011).
Converted amounts (≈) assume the structure as drawn.

Experiments:
[1] = test system: S. pneumoniae ATCC 6301; assay: MIC determination (NCCLS broth microdilution); type: cell-based; conditions: 24 hours at 34° C., lowest concentration with >=80% inhibition; for MIC: Streptococcus pneumoniae, ATCC6301
[2] = test system: S. faecium CT-26; assay: MIC determination (NCCLS broth microdilution); type: cell-based; conditions: 24 hours at 34° C., lowest concentration with >=80% inhibition; for MIC: Enterococcus faecium, CT26
[3] = test system: S. epidermidis ATCC 12228; assay: MIC determination (NCCLS broth microdilution); type: cell-based; conditions: 24 hours at 34° C., lowest concentration with >=80% inhibition; for MIC: Staphylococcus epidermidis, ATCC12228
[4] = test system: S. faecalis ATCC 29212; assay: MIC determination (NCCLS broth microdilution); type: cell-based; conditions: 24 hours at 34° C., lowest concentration with >=80% inhibition; for MIC: Enterococcus faecalis, ATCC29212
[5] = test system: S. aureus ATCC 29213; assay: MIC determination (NCCLS broth microdilution); type: cell-based; conditions: 24 hours at 34° C., lowest concentration with >=80% inhibition; for MIC: Staphylococcus aureus, ATCC29213
[6] = in vitro; conditions: human
[7] = test system: HBV ayw1 strain; assay: HepG2 2.15 Antiviral Evaluation Assay; type: cell-based; conditions: Hepatitis B virus; HepG2 2.2.15 cells; read-out: Anti-Hepatitis B Activity IC50
Description: (§1) HepG2 2.15 Antiviral Evaluation Assay—HepG2 2.2.15 cells, which produce HBV ayw1 strain, were plated in 96-well collagencoated microtiter plates at a density of 2.5×10^4/well with DMEM medium supplemented with 2% fetal bovine serum. One day following plating of cells, the wells were washed and the medium was replaced with complete medium containing the test compound diluted in the medium in a half-log series.
(§2) The medium was replaced once with the fresh medium containing the freshly diluted compound three days post the initial addition of the lamivudine, a positive control compound. Cell viability was determined using CellTiter 96® Reagent (Promega, Madison, Wis.) according to the manufacturer's protocol, using a Vmax plate reader (Molecular Devices, Sunnyvale, Calif.). The mixture is metabolized by the mitochondrial enzymes of metabolically active cells to a soluble formazan product, allowing the rapid quantitative analysis of cell numbers. The media was removed and replaced with 100 μl of fresh media and 10 μl of Cell Titer 96. […] Percent cell viability of compound treated wells compared to no compound controls was calculated using an in-house computer program which graphs the percent reduction in viral cytopathic effects and the cell numbers at each drug concentration relative to control values.

[8] = Cell viability (CellTiter 96) in HepG2 2.15 assay; type: cell-based; conditions: human, HepG2 2.2.15 cells (produce HBV ayw1 strain); read-out: Anti-Hepatitis B Activity TC50
Description: as §1, §2

[9] = Cytotoxicity in HCV RNA replicon assay; conditions: human, ET cell line (luc-ubi-neo/ET)
[10] = test system: 17D strain YFV virus; assay: microbe, parasite or virus in culture; type: cell-based, Yellow Fever (YFV); conditions: Yellow fever virus, HeLa, 168 h, read-out: Anti-Yellow Fever Activity IC50

SMILES | MIC [1] | MIC [2] | MIC [3] | MIC [4] | MIC [5] | CC50 at 7 day [6] | IC50 [7] | CC50 [8] | CC50 at 72 hr [9] | IC50 [10] | MIC S. pneumoniae ATCC 6301 [1] | MIC S. faecium CT-26 [2] | MIC S. epidermidis ATCC 12228 [3] | MIC S. faecalis ATCC 29212 [4] | MIC S. aureus ATCC 29213 [5]
CO/N=C(\C(=O)N[C@@H]1C(=O)N2C(C(=O)O)=C(CSc3nc(=O)c(=O)[nH]n3C)CS[C@H]12)c1csc(N)n1 [Ceftriaxone, reference compound] | 0.125 µg/mL (≈ 0.225 µM) | 64 µg/mL (≈ 115 µM) | 1 µg/mL (≈ 1.8 µM) | 64 µg/mL (≈ 115 µM) | 2 µg/mL (≈ 3.61 µM) |  |  |  |  |  |  |  |  |  | 
Cc1onc(-c2ccccc2Cl)c1C(=O)N[C@@H]1C(=O)N2[C@@H]1SC(C)(C)[C@@H]2C(=O)O [Cloxacillin, reference compound] | 0.125 µg/mL (≈ 0.287 µM) | 64 µg/mL (≈ 147 µM) | 0.25 µg/mL (≈ 0.574 µM) | 16 µg/mL (≈ 36.7 µM) | 0.125 µg/mL (≈ 0.287 µM) |  |  |  |  |  |  |  |  |  | 
Fc1ccc2c(c1)COB2c1cccc(Cl)c1 [Compound 11, 1-(3-Chlorophenyl)-5-fluoro-1,3-dihydrobenzo[c][1,2]oxaborole] | 8 µg/mL (≈ 32.5 µM) | 32 µg/mL (≈ 130 µM) | 1 µg/mL (≈ 4.06 µM) | 32 µg/mL (≈ 130 µM) | < 0.125 µg/mL | 4.14 µM | 2.47 µM | 3.2 µM | 1.29 µM | 0.65 µM |  |  |  |  | 
Clc1cccc(B2OCc3ccccc32)c1 [Compound 12, 1-(3-Chlorophenyl)-1,3-dihydrobenzo[c][1,2]oxaborole] | 8 µg/mL (≈ 35 µM) | 16 µg/mL (≈ 70 µM) | 2 µg/mL (≈ 8.75 µM) | 16 µg/mL (≈ 70 µM) | 0.5 µg/mL (≈ 2.19 µM) |  |  |  | 12.7 µM |  |  |  |  |  | 
Fc1cccc(B2OCc3cc(Cl)ccc32)c1 [Compound 13, 5-Chloro-1-(3-Fluorophenyl)-1,3-dihydrobenzo[c][1,2]oxaborole] | 4 µg/mL (≈ 16.2 µM) | 8 µg/mL (≈ 32.5 µM) | 0.25 µg/mL (≈ 1.01 µM) | 16 µg/mL (≈ 64.9 µM) | < 0.125 µg/mL | 6.22 µM |  |  | 0.37 µM | 1.39 µM |  |  |  |  | 
N#Cc1cccc(B2OCc3ccccc32)c1 [Compound 14, 3-(Benzo[c][1,2]oxaborol-1(3H)-yl)benzonitrile] | 2 µg/mL (≈ 9.13 µM) | 16 µg/mL (≈ 73 µM) | 2 µg/mL (≈ 9.13 µM) | 32 µg/mL (≈ 146 µM) | 0.25 µg/mL (≈ 1.14 µM) | 6.53 µM |  |  | 1.14 µM | 0.44 µM |  |  |  |  | 
Fc1ccc2c(c1)B(c1cccc(Cl)c1)OC2 [Compound 15, 1-(3-Chlorophenyl)-6-fluoro-1,3-dihydrobenzo[c][1,2]oxaborole] | 4 µg/mL (≈ 16.2 µM) | 8 µg/mL (≈ 32.5 µM) | 2 µg/mL (≈ 8.11 µM) | 16 µg/mL (≈ 64.9 µM) | 0.5 µg/mL (≈ 2.03 µM) | 6.6 µM |  |  | 0.54 µM | 1.19 µM |  |  |  |  | 
CC1(C)OB(c2cccc(Cl)c2)c2ccccc21 [Compound 16, 1-(3-Chlorophenyl)-1,3-dihydro-3,3-dimethylbenzo[c][1,2]oxaborole] | 8 µg/mL (≈ 31.2 µM) | 16 µg/mL (≈ 62.4 µM) | 2 µg/mL (≈ 7.8 µM) | 16 µg/mL (≈ 62.4 µM) | 0.5 µg/mL (≈ 1.95 µM) |  |  |  |  |  |  |  |  |  | 
Clc1ccc(B2OCc3ccccc32)cc1 [Compound 17, 1-(4-Chlorophenyl)-1,3-dihydrobenzo[c][1,2]oxaborole] | 4 µg/mL (≈ 17.5 µM) | 16 µg/mL (≈ 70 µM) | 2 µg/mL (≈ 8.75 µM) | 16 µg/mL (≈ 70 µM) | 2 µg/mL (≈ 8.75 µM) | 6.42 µM |  |  | 0.26 µM | 1.56 µM |  |  |  |  | 
N#Cc1ccc(B2OCc3ccccc32)cc1 [Compound 18, 4-(Benzo[c][1,2]oxaborol-1(3H)-yl)benzonitrile] | 4 µg/mL (≈ 18.3 µM) | 32 µg/mL (≈ 146 µM) | 2 µg/mL (≈ 9.13 µM) | 32 µg/mL (≈ 146 µM) | 2 µg/mL (≈ 9.13 µM) | 6.6 µM |  |  |  | 0.74 µM |  |  |  |  | 
N#Cc1ccc(B2OCc3cc(F)ccc32)cc1 [Compound 19, 4(5-Fluorobenzo[c][1,2]oxaborol-1(3H)-yl)benzonitrile] | 16 µg/mL (≈ 67.5 µM) | > 64 µg/mL | 16 µg/mL (≈ 67.5 µM) | > 64 µg/mL | 8 µg/mL (≈ 33.7 µM) | 17.1 µM |  |  | 0.27 µM |  |  |  |  |  | 
N#Cc1cccc(B2OCc3cc(F)ccc32)c1 [Compound 20, 3-(5-Fluorobenzo[c][1,2]oxaborol-1(3H)-yl)benzonitrile] | 8 µg/mL (≈ 33.7 µM) | 64 µg/mL (≈ 270 µM) | 16 µg/mL (≈ 67.5 µM) | 64 µg/mL (≈ 270 µM) | 1 µg/mL (≈ 4.22 µM) | 21 µM |  |  | 5.99 µM | 1.62 µM |  |  |  |  | 
N#Cc1cccc(B2OCc3ccc(F)cc32)c1 [Compound 21, 3-(6-Fluorobenzo[c][1,2]oxaborol-1(3H)-yl)benzonitrile] | 8 µg/mL (≈ 33.7 µM) | 64 µg/mL (≈ 270 µM) | 16 µg/mL (≈ 67.5 µM) | 64 µg/mL (≈ 270 µM) | 8 µg/mL (≈ 33.7 µM) | 15.8 µM |  |  | 0.69 µM | 2.36 µM |  |  |  |  | 
NCc1ccc(B2OCc3cc(F)ccc32)cc1 [Compound 23] | 8 µg/mL (≈ 33.2 µM) | 16 µg/mL (≈ 66.4 µM) | 8 µg/mL (≈ 33.2 µM) | 16 µg/mL (≈ 66.4 µM) | 2 µg/mL (≈ 8.3 µM) |  |  |  |  |  |  |  |  |  | 
NCc1cccc(B2OCc3cc(F)ccc32)c1 [Compound 24] | 16 µg/mL (≈ 66.4 µM) | 32 µg/mL (≈ 133 µM) | 8 µg/mL (≈ 33.2 µM) | 32 µg/mL (≈ 133 µM) | 4 µg/mL (≈ 16.6 µM) |  |  |  |  |  |  |  |  |  | 
CC[C@H]1OC(=O)[C@H](C)[C@@H](O[C@H]2C[C@@](C)(OC)[C@@H](O)[C@H](C)O2)[C@H](C)[C@@H](O[C@@H]2O[C@H](C)C[C@H](N(C)C)[C@H]2O)[C@](C)(O)C[C@@H](C)C(=O)[C@H](C)[C@@H](O)[C@]1(C)O [Erythromycin, reference compound] |  |  | 0.5 µg/mL (≈ 0.681 µM) | 2 µg/mL (≈ 2.73 µM) | 0.5 µg/mL (≈ 0.681 µM) |  |  |  |  |  |  |  |  |  | 
C[C@@H](O)[C@H]1C(=O)N2C(C(=O)O)=C(SCCN=CN)C[C@H]12 [Imipenem, reference compound] | 0.125 µg/mL (≈ 0.418 µM) | 64 µg/mL (≈ 214 µM) | 0.125 µg/mL (≈ 0.418 µM) | 1 µg/mL (≈ 3.34 µM) | 0.125 µg/mL (≈ 0.418 µM) |  |  |  |  |  |  |  |  |  | 
CC1(C)S[C@@H]2[C@H](NC(=O)Cc3ccccc3)C(=O)N2[C@H]1C(=O)O [Pen G, reference compound] |  |  |  |  |  |  |  |  |  |  | 0.125 micrograms per ml | 32 micrograms per ml | 16 micrograms per ml | 1 micrograms per ml | 0.5 micrograms per ml
Nc1ccn([C@@H]2CS[C@H](CO)O2)c(=O)n1 [lamivudine, reference compound] |  |  |  |  |  |  | 0.0093 µM | > 1 µM |  |  |  |  |  |  | 
